In patent US7417045B2, “Heterocyclic substituted pyridine or phenyl compounds with CXCR3 antagonist activity” (Schering Corporation, priority 2005, dated 2008):

The compounds below were run against T1, human CXCR3 (N-delta 4) (Homo sapiens, UniProt P49682) (assay: Human CXCR3 (N-delta 4) Scintillation Proximity Assay (SPA), [125I] IP-10 binding). Settings: IC50 rating; [125I] IP-10 displacement, Ba/F3-hCXCR3 (N-delta 4) membranes.
T1 construct: CD8 leader (N); Flag tag; expressed in transfected cells; membranes
T1 sequence (P49682 5-368 limits assumed): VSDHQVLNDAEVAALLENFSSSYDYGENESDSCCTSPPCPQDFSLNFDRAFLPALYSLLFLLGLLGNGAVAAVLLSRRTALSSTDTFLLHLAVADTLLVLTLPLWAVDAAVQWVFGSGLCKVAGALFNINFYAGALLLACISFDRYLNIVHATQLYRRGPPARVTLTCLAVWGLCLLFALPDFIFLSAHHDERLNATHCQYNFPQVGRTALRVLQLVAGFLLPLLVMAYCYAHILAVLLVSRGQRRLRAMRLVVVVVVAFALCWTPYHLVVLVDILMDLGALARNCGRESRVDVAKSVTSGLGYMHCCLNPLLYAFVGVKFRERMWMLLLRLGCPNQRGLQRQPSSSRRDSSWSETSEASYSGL
Description: The inventive compounds can readily be evaluated to determine activity at The CXCR3 receptors by known methods, such as, for example, Development of Human CXCR3 (N-delta 4) Binding Assay.
Cloning and Expression of Human CXCR3 (N-Delta 4):
The DNA encoding human CXCR3 was cloned by PCR using human genomic DNA (Promega, Madison, Wis.) as a template. The PCR primers were designed based on the published sequence of human orphan receptor GPR9 (1) with incorporated restriction sites, a Kozak consensus sequence, CD8 leader and Flag tag. The PCR product was subcloned into the mammalian expression vector pME18Sneo, a derivative of the SR-alpha expression vector (designated as pME18Sneo-hCXCR3 (N-delta 4).
IL-3-dependent mouse pro-B cells Ba/F3 were transfected by electroporation in 0.4 ml Dulbecco's PBS containing 4×10^6 cells with 20 μg of pME18Sneo-hCXCR3 (N-delta 4) plasmid DNA. Cells were pulsed at 400 Volts, 100 OHMs, 960 μFd. The transfected cells were under selection with 1 mg/ml G418 (Life Technologies, Gaithersburg, Md.). G418-resistant Ba/F3 clones were screened for CXCR3 expression by specific binding of [^125I] IP-10 (NEN Life Science Products, Boston, Mass.).
Preparation of Ba/F3-hCXCR3 (N-Delta 4) Membranes
Ba/F3 cells expressing human CXCR3 (N-delta 4) were pelleted and resuspended in the lysis buffer containing 10 mM HEPES, pH 7.5 and Complete® protease inhibitors (1 tablet per 100 ml) (Boehringer Mannheim, Indianapolis, Ind.) at a cell density of 20×10^6 cells per ml. After 5 minutes incubation on ice, cells were transferred to 4639 cell disruption bomb (Parr Instrument, Moline, Ill.) and applied with 1,500 psi of nitrogen for 30 minutes on ice. Large cellular debris was removed by centrifugation at 1,000× g. Cell membrane in the supernatant was sedimented at 100,000× g. The membrane was resuspended in the lysis buffer supplemented with 10% sucrose and stored at −80° C. Total protein concentration of the membrane was determined by BCA method from Pierce (Rockford, Ill.).
Human CXCR3 (N-Delta 4) Scintillation Proximity Assay (SPA)
For each assay point, 2 μg of membrane was preincubated for 1 hr with 300 μg wheat germ agglutinin (WGA) coated SPA beads (Amersham, Arlington Heights, Ill.) in the binding buffer (50 mM HEPES, 1 mM CaCl2, 5 mM MgCl2, 125 mM NaCl, 0.002% NaN3, 1.0% BSA) at room temperature. The beads were spun down, washed once, resuspended in the binding buffer and transferred to a 96-well Isoplate (Wallac, Gaithersburg, Md.). 25 pM of [^125I] IP-10 with tested compounds in a series of titration were added to start the reaction. After 3 hr reaction at room temperature, the amount of [^125I] IP-10 bound to the SPA beads was determined with a Wallac 1450 Microbeta counter.

Row | SMILES | IC50
1 | CC[C@H]1CN(c2ncc(-c3ncon3)cc2Cl)CCN1C1CCN(Cc2ccc(Cl)cc2F)CC1 [Compound 144] | > 100 nM
2 | CC[C@H]1CN(c2ncc(-c3ncc[nH]3)cc2Cl)CCN1C1(C)CCN(C(C(=O)OC)c2ccc(Cl)cc2)CC1 (stereo partly shown) [Compound 128] | 25 to 100 nM
3 | CC[C@H]1CN(c2ncc(C3=NCCN3)cc2Cl)CCN1C1CCN(Cc2ccc(Cl)cc2C(C)(C)O)CC1 [Compound 44] | < 25 nM
4 | CC[C@H]1CN(c2ncc(-c3nnc(C(C)(C)O)o3)cc2Cl)CCN1C1CCN(Cc2ccc(Cl)cc2F)CC1 [Compound 98] | < 25 nM
5 | CC[C@H]1CN(c2ncc(C3=NCCN3)cc2Cl)CCN1C1CCN(C(=O)c2ccc(Cl)cc2)CC1 [Compound 58] | < 25 nM
6 | CC[C@H]1CN(c2ncc(-c3ncc[nH]3)cc2Cl)CCN1C1CCN(C(=O)c2ccc(C#CC(C)(C)NS(N)(=O)=O)cc2)CC1 [Compound 168] | > 100 nM
7 | CCNc1nnc(-c2cnc(N3CCN(C4CCN(C(=O)c5ccc(Cl)nc5N)CC4)[C@@H](CC)C3)c(Cl)c2)o1 [Compound 73] | < 25 nM
8 | CC[C@H]1CN(c2ncc(-c3nccn3C)cc2Cl)CCN1C1CCN(Cc2ccc(Cl)cc2F)CC1 [Compound 122] | 25 to 100 nM
9 | CC[C@H]1CN(c2ncc(-c3nnc(N)o3)cc2C(F)(F)F)[C@H](C)CN1C1CCN(Cc2ccc(OC(F)(F)F)cc2)CC1 [Compound 175] | < 25 nM
10 | CC[C@H]1CN(c2ncc(C3=NCCN3C(=O)c3ccc(C#N)cc3)cc2Cl)CCN1C1CCN(C(=O)c2ccc(C#N)cc2)CC1 [Compound 161] | > 100 nM
11 | CC[C@H]1CN(c2ncc(-c3ncc[nH]3)cc2Cl)CCN1C1CCN(C(C)c2ccc(Cl)cc2)CC1 (stereo partly shown) [Compound 8] | < 25 nM
12 | CC[C@H]1CN(c2ncc(C3=NCCN3)cc2Cl)CCN1C1CCN(Cc2ccc(C#CC(C)(C)O)cc2)CC1 [Compound 54] | < 25 nM
13 | CC[C@H]1CN(c2ncc(-c3nnc(COC(C)=O)o3)cc2Cl)CCN1C1CCN(Cc2ccc(Cl)cc2F)CC1 [Compound 84] | < 25 nM
14 | CC[C@H]1CN(c2ncc(-c3ncc[nH]3)cc2Cl)CCN1C1CCN(Cc2ccc(Cl)cc2-c2ncc[nH]2)CC1 [Compound 28] | < 25 nM
15 | CC[C@H]1CN(c2ncc(-c3ncc[nH]3)cc2Cl)CCN1C1CCN([C@@H](C(=O)N(C)C)c2ccc(Cl)cc2)CC1 [Compound 97] | < 25 nM
16 | CC[C@H]1CN(c2ncc(-c3ncc[nH]3)cc2Cl)CCN1C1CCN(C(=O)c2ccc(-c3csnn3)cc2)CC1 [Compound 109] | 25 to 100 nM
17 | CC[C@H]1CN(c2ncc(-c3nccn3S(C)(=O)=O)cc2Cl)CCN1C1CCN(Cc2ccc(Cl)cc2F)CC1 [Compound 121] | 25 to 100 nM
18 | CC[C@H]1CN(c2ncc(-c3ncc[nH]3)cc2Cl)CCN1C1CCN(C(C(=O)Nc2ccccn2)c2ccc(Cl)cc2)CC1 (stereo partly shown) [Compound 116] | 25 to 100 nM
19 | CC[C@H]1CN(c2ncc(-c3ncc[nH]3)cc2Cl)CCN1C1CCN(Cc2ccc(C#CC(C)(C)NC(=O)OC(C)(C)C)cc2)CC1 [Compound 101] | < 25 nM
20 | CC[C@H]1CN(c2ncc(-c3ncc[nH]3)cc2Cl)CCN1C1CCN(Cc2ccc(C#N)cc2)CC1 [Compound 17] | < 25 nM
21 | CC[C@H]1CN(c2ncc(-c3nccn3C(=O)c3ccc(Cl)cc3)cc2Cl)CCN1C1CCN(C(=O)c2ccc(Cl)cc2)CC1 [Compound 55] | < 25 nM
22 | CC[C@H]1CN(c2ncc(C3=NCCN3)cc2Cl)CCN1C1CCN(C(=O)c2ccc(C#CC(C)(C)O)cc2)CC1 [Compound 104] | 25 to 100 nM
23 | CC[C@H]1CN(c2ncc(-c3nc(C(O)C(F)(F)F)c[nH]3)cc2Cl)CCN1C1CCN(C(=O)c2ccc(Cl)cc2)CC1 (stereo partly shown) [Compound 125] | 25 to 100 nM
24 | CC[C@H]1CN(c2ncc(-c3noc(=O)[nH]3)cc2Cl)CCN1C1CCN(Cc2ccc(Cl)cc2F)CC1 [Compound 160] | > 100 nM
25 | CC[C@H]1CN(c2ncc(-c3ncc[nH]3)cc2Cl)CCN1C1CCN(Cc2ccc(Cl)cc2C(=O)NN)CC1 [Compound 60] | < 25 nM

Row | SMILES | IC50
26 | CC[C@H]1CN(c2ncc(-c3ncc[nH]3)cc2Cl)CCN1C1CCN([C@H](C(=O)NCC(F)(F)F)c2ccc(Cl)cc2)CC1 [Compound 155] | > 100 nM
27 | CC[C@H]1CN(c2ncc(-c3ncc[nH]3)cc2Cl)CCN1C1CCN([C@@H](C(=O)NCC(F)(F)F)c2ccc(Cl)cc2)CC1 [Compound 99] | < 25 nM
28 | CC[C@H]1CN(c2ncc(C3=NCCN3)cc2Cl)CCN1C1CCN(C(=O)c2ccc(C#N)cc2)CC1 [Compound 87] | < 25 nM
29 | CC[C@H]1CN(c2ncc(-c3ncc[nH]3)cc2Cl)CCN1C1CCN(C(=O)c2ccc(Br)cc2)CC1 [Compound 41] | < 25 nM
30 | CC[C@H]1CN(c2ncc(-c3ncc[nH]3)cc2Cl)CCN1C1CCN([C@H](C(=O)OC)c2ccc(Cl)cc2)CC1 [Compound 133] | > 100 nM
31 | CC[C@H]1CN(c2ncc(-c3ncc[nH]3)cc2Cl)CCN1C1CCN(CCCC(=O)c2ccc(Cl)cc2)CC1 [Compound 83] | < 25 nM
32 | CC[C@H]1CN(c2ncc(-c3ncc[nH]3)cc2Cl)CCN1C1CCN([C@@H](C(=O)OC)c2ccc(Br)cc2)CC1 [Compound 40] | < 25 nM
33 | CC[C@H]1CN(c2ncc(-c3ncc[nH]3)cc2Cl)CCN1C1CCN(C(=O)c2ccc(C(C)=O)cc2)CC1 [Compound 111] | 25 to 100 nM
34 | CC[C@H]1CN(c2ncc(-c3ncc[nH]3)cc2Cl)CCN1C1CCN(C(=O)c2ccc(-n3cccc3)cc2)CC1 [Compound 67] | < 25 nM
35 | CC[C@H]1CN(c2ncc(-c3nnco3)cc2Cl)CCN1C1CCN(C(=O)c2ccc(Br)cc2)CC1 [Compound 129] | 25 to 100 nM
36 | CC[C@H]1CN(c2ncc(-c3ncc[nH]3)cc2Cl)CCN1C1(C)CCN(Cc2ccc(Cl)cc2C(=O)OC)CC1 [Compound 151] | > 100 nM
37 | CC[C@H]1CN(c2ncc(-c3ncc[nH]3)cc2Cl)CCN1C1CCN([C@H](C(=O)NCC2CC2)c2ccc(Cl)cc2)CC1 [Compound 159] | > 100 nM
38 | CC[C@H]1CN(c2ncc(-c3ncc[nH]3)cc2Cl)CCN1C1CCN(C(C)c2ccc(N3CCOCC3)cc2)CC1 (stereo partly shown) [Compound 139] | > 100 nM
39 | CC[C@H]1CN(c2ncc(-c3ncc[nH]3)cc2Cl)CCN1C1CCN([C@H](C(=O)NC2CC2)c2ccc(Cl)cc2)CC1 [Compound 149] | > 100 nM
40 | CC[C@H]1CN(c2ncc(-c3ncc[nH]3)cc2Cl)CCN1C1CCN(Cc2ccc(Cl)cc2/C(N)=N/O)CC1 [Compound 6] | < 25 nM
41 | CC[C@H]1CN(c2ncc(-c3ncc[nH]3)cc2Cl)CCN1C1CCN([C@@H](C(=O)OC)c2ccc(Cl)cc2)CC1 [Compound 35] | < 25 nM
42 | CC[C@H]1CN(c2ncc(-c3nnc(C)o3)cc2Cl)CCN1C1CCN(C(=O)c2ccc(Br)cc2)CC1 [Compound 120] | 25 to 100 nM
43 | CC[C@H]1CN(c2ncc(-c3ncc[nH]3)cc2Cl)CCN1C1CCN(C(=O)c2ccc(-n3cncn3)nc2)CC1 [Compound 112] | 25 to 100 nM
44 | CC[C@H]1CN(c2ncc(-c3ncc[nH]3)cc2Cl)CCN1C1CCN(Cc2ccc(Cl)cc2F)CC1 [Compound 4] | < 25 nM
45 | CC[C@H]1CN(c2ncc(-c3nc(C(O)C(F)(F)F)c[nH]3)cc2Cl)CCN1C1CCN(Cc2ccc(Cl)cc2F)CC1 (stereo partly shown) [Compound 80] | < 25 nM
46 | CC[C@H]1CN(c2ncc(-c3cncn3C)cc2Cl)CCN1C1CCN(Cc2ccc(Cl)cc2)CC1 [Compound 115] | 25 to 100 nM
47 | CC[C@H]1CN(c2ncc(-c3ncc[nH]3)cc2Cl)CCN1C1CCN(C(=O)c2ccc(Cl)cc2)CC1 [Compound 47] | < 25 nM
48 | CC[C@H]1CN(c2ncc(-c3ncc[nH]3)cc2Cl)CCN1C1CCN(Cc2ccc(I)cc2)CC1 [Compound 3] | < 25 nM
49 | CC[C@H]1CN(c2ncc(-c3ncc[nH]3)cc2Cl)CCN1C1CCN(Cc2ccc(C#CC(C)(C)N)cc2)CC1 [Compound 134] | > 100 nM
